{"source": "ChEMBL document CHEMBL1177779", "about": "“Development of dual functional SPECT/fluorescent probes for imaging cerebral beta-amyloid plaques” (Bioorg Med Chem Lett, 2010)", "key": {"[1]": {"assay": "Displacement of [125I]IMPY from amyloid beta (1-42) after 3 hrs by gamma counting"}, "Kidney [2]": {"tested_on": "Kidney", "assay": "Biodistribution in ddY mouse kidney assessed per gram of tissue at 7.77 KBq, iv after 10 mins by gamma counting", "format": "ADME, organism-based", "details": "in vivo"}, "Brain [3]": {"tested_on": "Brain", "assay": "Biodistribution in ddY mouse brain assessed per gram of tissue at 7.77 KBq, iv after 2 mins by gamma counting", "format": "ADME, organism-based", "details": "in vivo"}, "Spleen [4]": {"tested_on": "Spleen", "assay": "Biodistribution in ddY mouse spleen assessed per gram of tissue at 7.77 KBq, iv after 60 mins by gamma counting", "format": "ADME, organism-based", "details": "in vivo, 1 h"}, "Intestine [5]": {"tested_on": "Intestine", "assay": "Biodistribution in ddY mouse intestine assessed per gram of tissue at 7.77 KBq, iv after 2 mins by gamma counting", "format": "ADME, organism-based", "details": "in vivo"}, "Kidney [6]": {"tested_on": "Kidney", "assay": "Biodistribution in ddY mouse kidney assessed per gram of tissue at 7.77 KBq, iv after 2 mins by gamma counting", "format": "ADME, organism-based", "details": "in vivo"}, "Stomach [7]": {"tested_on": "Stomach", "assay": "Biodistribution in ddY mouse stomach assessed per organ at 7.77 KBq, iv after 30 mins by gamma counting", "format": "ADME, organism-based", "details": "in vivo, 0.5 h"}, "Spleen [8]": {"tested_on": "Spleen", "assay": "Biodistribution in ddY mouse spleen assessed per gram of tissue at 7.77 KBq, iv after 2 mins by gamma counting", "format": "ADME, organism-based", "details": "in vivo"}, "Intestine [9]": {"tested_on": "Intestine", "assay": "Biodistribution in ddY mouse intestine assessed per gram of tissue at 7.77 KBq, iv after 60 mins by gamma counting", "format": "ADME, organism-based", "details": "in vivo, 1 h"}, "Blood [10]": {"tested_on": "Blood", "assay": "Biodistribution in ddY mouse blood assessed per gram of tissue at 7.77 KBq, iv after 10 mins by gamma counting", "format": "ADME, organism-based", "details": "in vivo"}, "Intestine [11]": {"tested_on": "Intestine", "assay": "Biodistribution in ddY mouse intestine assessed per gram of tissue at 7.77 KBq, iv after 30 mins by gamma counting", "format": "ADME, organism-based", "details": "in vivo, 0.5 h"}, "Pancreas [12]": {"tested_on": "Pancreas", "assay": "Biodistribution in ddY mouse pancreas assessed per gram of tissue at 7.77 KBq, iv after 2 mins by gamma counting", "format": "ADME, organism-based", "details": "in vivo"}, "Heart [13]": {"tested_on": "Heart", "assay": "Biodistribution in ddY mouse heart assessed per gram of tissue at 7.77 KBq, iv after 2 mins by gamma counting", "format": "ADME, organism-based", "details": "in vivo"}, "Pancreas [14]": {"tested_on": "Pancreas", "assay": "Biodistribution in ddY mouse pancreas assessed per gram of tissue at 7.77 KBq, iv after 10 mins by gamma counting", "format": "ADME, organism-based", "details": "in vivo"}, "Stomach [15]": {"tested_on": "Stomach", "assay": "Biodistribution in ddY mouse stomach assessed per organ at 7.77 KBq, iv after 60 mins by gamma counting", "format": "ADME, organism-based", "details": "in vivo, 1 h"}, "Liver [16]": {"tested_on": "Liver", "assay": "Biodistribution in ddY mouse liver assessed per gram of tissue at 7.77 KBq, iv after 10 mins by gamma counting", "format": "ADME, organism-based", "details": "in vivo"}, "Pancreas [17]": {"tested_on": "Pancreas", "assay": "Biodistribution in ddY mouse pancreas assessed per gram of tissue at 7.77 KBq, iv after 30 mins by gamma counting", "format": "ADME, organism-based", "details": "in vivo, 0.5 h"}, "Intestine [18]": {"tested_on": "Intestine", "assay": "Biodistribution in ddY mouse intestine assessed per gram of tissue at 7.77 KBq, iv after 10 mins by gamma counting", "format": "ADME, organism-based", "details": "in vivo"}, "Blood [19]": {"tested_on": "Blood", "assay": "Biodistribution in ddY mouse blood assessed per gram of tissue at 7.77 KBq, iv after 30 mins by gamma counting", "format": "ADME, organism-based", "details": "in vivo, 0.5 h"}, "Brain [20]": {"tested_on": "Brain", "assay": "Biodistribution in ddY mouse brain assessed per gram of tissue at 7.77 KBq, iv after 60 mins by gamma counting", "format": "ADME, organism-based", "details": "in vivo, 1 h"}, "Liver [21]": {"tested_on": "Liver", "assay": "Biodistribution in ddY mouse liver assessed per gram of tissue at 7.77 KBq, iv after 2 mins by gamma counting", "format": "ADME, organism-based", "details": "in vivo"}, "Heart [22]": {"tested_on": "Heart", "assay": "Biodistribution in ddY mouse heart assessed per gram of tissue at 7.77 KBq, iv after 10 mins by gamma counting", "format": "ADME, organism-based", "details": "in vivo"}, "Spleen [23]": {"tested_on": "Spleen", "assay": "Biodistribution in ddY mouse spleen assessed per gram of tissue at 7.77 KBq, iv after 30 mins by gamma counting", "format": "ADME, organism-based", "details": "in vivo, 0.5 h"}, "Spleen [24]": {"tested_on": "Spleen", "assay": "Biodistribution in ddY mouse spleen assessed per gram of tissue at 7.77 KBq, iv after 10 mins by gamma counting", "format": "ADME, organism-based", "details": "in vivo"}, "Liver [25]": {"tested_on": "Liver", "assay": "Biodistribution in ddY mouse liver assessed per gram of tissue at 7.77 KBq, iv after 60 mins by gamma counting", "format": "ADME, organism-based", "details": "in vivo, 1 h"}, "Stomach [26]": {"tested_on": "Stomach", "assay": "Biodistribution in ddY mouse stomach assessed per organ at 7.77 KBq, iv after 2 mins by gamma counting", "format": "ADME, organism-based", "details": "in vivo"}, "Brain [27]": {"tested_on": "Brain", "assay": "Biodistribution in ddY mouse brain assessed per gram of tissue at 7.77 KBq, iv after 30 mins by gamma counting", "format": "ADME, organism-based", "details": "in vivo, 0.5 h"}, "Pancreas [28]": {"tested_on": "Pancreas", "assay": "Biodistribution in ddY mouse pancreas assessed per gram of tissue at 7.77 KBq, iv after 60 mins by gamma counting", "format": "ADME, organism-based", "details": "in vivo, 1 h"}, "Stomach [29]": {"tested_on": "Stomach", "assay": "Biodistribution in ddY mouse stomach assessed per organ at 7.77 KBq, iv after 10 mins by gamma counting", "format": "ADME, organism-based", "details": "in vivo"}, "Blood [30]": {"tested_on": "Blood", "assay": "Biodistribution in ddY mouse blood assessed per gram of tissue at 7.77 KBq, iv after 60 mins by gamma counting", "format": "ADME, organism-based", "details": "in vivo, 1 h"}, "Heart [31]": {"tested_on": "Heart", "assay": "Biodistribution in ddY mouse heart assessed per gram of tissue at 7.77 KBq, iv after 30 mins by gamma counting", "format": "ADME, organism-based", "details": "in vivo, 0.5 h"}, "Kidney [32]": {"tested_on": "Kidney", "assay": "Biodistribution in ddY mouse kidney assessed per gram of tissue at 7.77 KBq, iv after 60 mins by gamma counting", "format": "ADME, organism-based", "details": "in vivo, 1 h"}, "Kidney [33]": {"tested_on": "Kidney", "assay": "Biodistribution in ddY mouse kidney assessed per gram of tissue at 7.77 KBq, iv after 30 mins by gamma counting", "format": "ADME, organism-based", "details": "in vivo, 0.5 h"}, "Heart [34]": {"tested_on": "Heart", "assay": "Biodistribution in ddY mouse heart assessed per gram of tissue at 7.77 KBq, iv after 60 mins by gamma counting", "format": "ADME, organism-based", "details": "in vivo, 1 h"}, "Brain [35]": {"tested_on": "Brain", "assay": "Biodistribution in ddY mouse brain assessed per gram of tissue at 7.77 KBq, iv after 10 mins by gamma counting", "format": "ADME, organism-based", "details": "in vivo"}, "Blood [36]": {"tested_on": "Blood", "assay": "Biodistribution in ddY mouse blood assessed per gram of tissue at 7.77 KBq, iv after 2 mins by gamma counting", "format": "ADME, organism-based", "details": "in vivo"}, "Liver [37]": {"tested_on": "Liver", "assay": "Biodistribution in ddY mouse liver assessed per gram of tissue at 7.77 KBq, iv after 30 mins by gamma counting", "format": "ADME, organism-based", "details": "in vivo, 0.5 h"}}, "data": [{"smiles": "CC1=CC(C)=[N+]2C1=Cc1ccc(/C=C/c3ccc(-c4ccc(I)cc4)s3)n1[B-]2(F)F", "values": [{"measurement": "Ki", "setting": "[1]", "value": 108, "unit": "nM"}, {"measurement": "inhibition", "setting": "[1]", "value": "Dose-dependent effect"}]}, {"smiles": "CC1=CC(C)=[N+]2C1=Cc1ccc(/C=C/c3ccc(-c4ccc([125I])cc4)s3)n1[B-]2(F)F", "values": [{"measurement": "Drug uptake", "setting": "Kidney [2]", "value": 4.79, "unit": "% ID/g"}, {"measurement": "Drug uptake", "setting": "Brain [3]", "value": 0.4, "unit": "% ID/g"}, {"measurement": "Drug uptake", "setting": "Spleen [4]", "value": 21.52, "unit": "% ID/g"}, {"measurement": "Drug uptake", "setting": "Intestine [5]", "value": 0.48, "unit": "% ID/g"}, {"measurement": "Drug uptake", "setting": "Kidney [6]", "value": 5.39, "unit": "% ID/g"}, {"measurement": "Drug uptake", "setting": "Stomach [7]", "value": 4.79, "unit": "%ID"}, {"measurement": "Drug uptake", "setting": "Spleen [8]", "value": 16.12, "unit": "% ID/g"}, {"measurement": "Drug uptake", "setting": "Intestine [9]", "value": 3.04, "unit": "% ID/g"}, {"measurement": "Drug uptake", "setting": "Blood [10]", "value": 4.09, "unit": "% ID/g"}, {"measurement": "Drug uptake", "setting": "Intestine [11]", "value": 1.91, "unit": "% ID/g"}, {"measurement": "Drug uptake", "setting": "Pancreas [12]", "value": 1.19, "unit": "% ID/g"}, {"measurement": "Drug uptake", "setting": "Heart [13]", "value": 5.59, "unit": "% ID/g"}, {"measurement": "Drug uptake", "setting": "Pancreas [14]", "value": 0.74, "unit": "% ID/g"}, {"measurement": "Drug uptake", "setting": "Stomach [15]", "value": 5.5, "unit": "%ID"}, {"measurement": "Drug uptake", "setting": "Liver [16]", "value": 46.02, "unit": "% ID/g"}, {"measurement": "Drug uptake", "setting": "Pancreas [17]", "value": 0.72, "unit": "% ID/g"}, {"measurement": "Drug uptake", "setting": "Intestine [18]", "value": 0.93, "unit": "% ID/g"}, {"measurement": "Drug uptake", "setting": "Blood [19]", "value": 3.09, "unit": "% ID/g"}, {"measurement": "Drug uptake", "setting": "Brain [20]", "value": 0.14, "unit": "% ID/g"}, {"measurement": "Drug uptake", "setting": "Liver [21]", "value": 35.51, "unit": "% ID/g"}, {"measurement": "Drug uptake", "setting": "Heart [22]", "value": 2.95, "unit": "% ID/g"}, {"measurement": "Drug uptake", "setting": "Spleen [23]", "value": 28.21, "unit": "% ID/g"}, {"measurement": "Drug uptake", "setting": "Spleen [24]", "value": 26.9, "unit": "% ID/g"}, {"measurement": "Drug uptake", "setting": "Liver [25]", "value": 45.78, "unit": "% ID/g"}, {"measurement": "Drug uptake", "setting": "Stomach [26]", "value": 1.4, "unit": "%ID"}, {"measurement": "Drug uptake", "setting": "Brain [27]", "value": 0.14, "unit": "% ID/g"}, {"measurement": "Drug uptake", "setting": "Pancreas [28]", "value": 0.92, "unit": "% ID/g"}, {"measurement": "Drug uptake", "setting": "Stomach [29]", "value": 4.73, "unit": "%ID"}, {"measurement": "Drug uptake", "setting": "Blood [30]", "value": 2.44, "unit": "% ID/g"}, {"measurement": "Drug uptake", "setting": "Heart [31]", "value": 2.31, "unit": "% ID/g"}, {"measurement": "Drug uptake", "setting": "Kidney [32]", "value": 4.43, "unit": "% ID/g"}, {"measurement": "Drug uptake", "setting": "Kidney [33]", "value": 4.46, "unit": "% ID/g"}, {"measurement": "Drug uptake", "setting": "Heart [34]", "value": 2.3, "unit": "% ID/g"}, {"measurement": "Drug uptake", "setting": "Brain [35]", "value": 0.19, "unit": "% ID/g"}, {"measurement": "Drug uptake", "setting": "Blood [36]", "value": 11.67, "unit": "% ID/g"}, {"measurement": "Drug uptake", "setting": "Liver [37]", "value": 45.87, "unit": "% ID/g"}]}]}
